Data reported in patent publication US20020187514A1 (priority 1999, published 2002).

Tests used:
Acetylcholinesterase = experiment: Acetylcholinesterase; substrate Acetylthiocholine; type: biochemical
Glutamate Transport = experiment: Glutamate Transport; [3H]Glutamic Acid; type: biochemical; conditions: 10^−5 M
Estrogen = experiment: Estrogen; [125I]3,17B-Estradiol, 16a; type: binding; conditions: 10^−5 M
[1] = system: Vasoactive Intestine Peptide, Non-selective; type: binding; conditions: 10^−5 M
[2] = target: T1, Protein Tyrosine Phosphatase, PTP-LAR-D1 (Homo sapiens, UniProt P10586); experiment: Protein Tyrosine Phosphatase, PTP-LAR-D1 (Human); substrate pNPP; type: biochemical; conditions: read-out: Pass 1 (10^−5 M) % Inhibition
T1 construct: PTP-LAR-D1

Imidazoline, I2, central = experiment: Imidazoline, I2, central; [3H]2-BFI; type: binding; conditions: 10^−5 M
Sodium, Site 1 = type: binding
Galanin = experiment: Galanin; [I125]Galanin; type: binding
[3] = system: Nicotinic (a-bungarotoxin insensitive); type: binding; conditions: 10^−5 M
[4] = reported in vivo pharmacology, cited from earlier work
Serotonin, 5HT4 = target: T2, Serotonin, 5HT4 (Cavia porcellus, UniProt O70528); experiment: biochemical; type: binding; conditions: read-out: Pass 1 (10^−5 M) % Inhibition
T2 construct: no other source notation after assay name denotes animal cell or animal tissue source; from tissue; host or cells: animal cell or animal tissue, not specified

Serotonin, 5HT2A = Serotonin, 5HT2A (Homo sapiens, UniProt P28223); experiment: biochemical; type: binding; conditions: read-out: Pass 1 (10^−5 M) % Inhibition
[5] = target: Norepinephrine Transporter (Rattus norvegicus, UniProt Q9WTR4); experiment: biochemical; type: binding; conditions: read-out: Pass 1 (10^−5 M) % Inhibition
Adenosine, A2A = target: T3, Adenosine, A2A (Homo sapiens, UniProt P29274); experiment: biochemical; type: binding; conditions: read-out: Pass 1 (10^−5 M) % Inhibition
T3 construct: expressed in transfected cells

[6] = system: Glutamate, Chloride Dependent Site; experiment: Glutamate, Chloride Dependent Site; [3H]Glutamic Acid; type: binding; conditions: 10^−5 M
Histamine, H2 = target: T4, Histamine, H2 (Cavia porcellus, UniProt P47747); experiment: biochemical; type: binding; conditions: read-out: Pass 1 (10^−5 M) % Inhibition
T4 construct: no other source notation after assay name denotes animal cell or animal tissue source; from tissue; host or cells: animal cell or animal tissue, not specified

[7] = target: Benzodiazepine, peripheral (Homo sapiens, UniProt P30536); experiment: biochemical; type: binding; conditions: read-out: Pass 1 (10^−5 M) % Inhibition
Glutamate, AMPA Site = experiment: Glutamate, AMPA Site; [3H]AMPA; type: binding; conditions: 10^−5 M
Adrenergic, Beta 1 = target: T5, Adrenergic, Beta 1 (Homo sapiens, UniProt P08588); experiment: Adrenergic, Beta 1 (Human Recombinant); [125I]Iodocyanopindolol; type: binding; conditions: read-out: Pass 1 (10^−5 M) % Inhibition
T5 construct: expressed in transfected cells

[8] = system: Atrial Natriuretic Peptide, ANP A; experiment: Atrial Natriuretic Peptide, ANP A; [125I]ANP (Rat); type: binding
Neurokinin, NK1 = type: binding; conditions: 10^−5 M
Cannabinoid, CB2 = target: T6, Cannabinoid, CB2 (Homo sapiens, UniProt P34972); experiment: Cannabinoid, CB2 (Human recombinant); [3H]-CP55940; type: binding; conditions: read-out: Pass 1 (10^−5 M) % Inhibition
T6 construct: expressed in transfected cells

Dopamine, D5 = target: T7, Dopamine, D5 (Homo sapiens, UniProt P21918); experiment: biochemical; type: binding; conditions: read-out: Pass 1 (10^−5 M) % Inhibition
T7 construct: expressed in transfected cells

Neurokinin, NK3 (NKB) = type: binding; conditions: 10^−5 M
Adrenergic, Alpha 2C = target: T8, Adrenergic, Alpha 2C (Homo sapiens, UniProt P18825); experiment: Adrenergic, Alpha 2C (Human Recombinant); [3H]MK-912; type: binding; conditions: read-out: Pass 1 (10^−5 M) % Inhibition
T8 construct: expressed in transfected cells

[9] = system: Glutamic Acid Decarboxylase; experiment: Glutamic Acid Decarboxylase; substrate [14C]Glutamic acid; type: biochemical; conditions: 10^−5 M
Adenosine, A1 = Adenosine, A1 (UniProt P25099); experiment: Adenosine, A1; [3H]CPX; type: binding; conditions: 10^−5 M
Serotonin, 5HT1B = target: T9, Serotonin, 5HT1B (Rattus norvegicus, UniProt P28564); experiment: biochemical; type: binding; conditions: read-out: Pass 1 (10^−5 M) % Inhibition
T9 construct: no other source notation after assay name denotes animal cell or animal tissue source; from tissue; host or cells: animal cell or animal tissue, not specified

[10] = system: Cholecystokinin, CCK2 (CCKB); experiment: Cholecystokinin, CCK2 (CCKB); [125I]CCK-8; type: binding; conditions: 10^−5 M
Muscarinic, M5 = target: T10, Muscarinic, M5 (Homo sapiens, UniProt P08912); experiment: biochemical; type: binding; conditions: read-out: Pass 1 (10^−5 M) % Inhibition
T10 construct: expressed in transfected cells

[11] = system: Cholecystokinin, CCK1 (CCKA); experiment: Cholecystokinin, CCK1 (CCKA); [125I]CCK-8; type: binding; conditions: 10^−5 M
[12] = target: Calcium Channel, Type L (Dihydropyridine Site) (Rattus norvegicus, UniProt P22002); experiment: Calcium Channel, Type L (Dihydropyridine Site); [3H]Nitrendipine; type: binding; conditions: read-out: Pass 1 (10^−5 M) % Inhibition
Melatonin = experiment: Melatonin; [125I]-2-Iodomelatonin; type: binding; conditions: 10^−5 M
Serotonin, 5HT1A = type: binding
Adrenergic, Alpha 1A = Adrenergic, Alpha 1A (UniProt P43140); experiment: Adrenergic, Alpha 1A; [3H]-7-MeOxy-Prazosin; type: binding
Adenosine Transporter = Adenosine Transporter (Homo sapiens, UniProt Q99808); experiment: biochemical; type: binding; conditions: read-out: Pass 1 (10^−5 M) % Inhibition
[13] = system: Glutamate, NMDA Agonist Site; experiment: Glutamate, NMDA Agonist Site; [3H]CGP 39653; type: binding; conditions: 10^−5 M
Serotonin, 5HT6 = target: T11, Serotonin, 5HT6 (Homo sapiens, UniProt P50406); experiment: biochemical; type: binding; conditions: read-out: Pass 1 (10^−5 M) % Inhibition
T11 construct: expressed in transfected cells

GABA Transaminase = experiment: GABA Transaminase; substrate [14C]-GABA; type: biochemical
Muscarinic, M4 = target: T12, Muscarinic, M4 (Homo sapiens, UniProt P08173); experiment: biochemical; type: binding; conditions: read-out: Pass 1 (10^−5 M) % Inhibition
T12 construct: expressed in transfected cells

Sodium, Site 2 = type: binding
Adenosine, A2 = Adenosine, A2 (UniProt P30543); experiment: Adenosine, A2; [3H]CGS21680; type: binding
Calcium Channel, Type N = type: binding
Muscarinic, M1 = Muscarinic, M1 (Homo sapiens, UniProt P11229); experiment: biochemical; conditions: read-out: Pass 1 (10^−5 M) % Inhibition

Chain of Calcium Channel, Type L (Dihydropyridine Site) (P22002 whole entry, looked up): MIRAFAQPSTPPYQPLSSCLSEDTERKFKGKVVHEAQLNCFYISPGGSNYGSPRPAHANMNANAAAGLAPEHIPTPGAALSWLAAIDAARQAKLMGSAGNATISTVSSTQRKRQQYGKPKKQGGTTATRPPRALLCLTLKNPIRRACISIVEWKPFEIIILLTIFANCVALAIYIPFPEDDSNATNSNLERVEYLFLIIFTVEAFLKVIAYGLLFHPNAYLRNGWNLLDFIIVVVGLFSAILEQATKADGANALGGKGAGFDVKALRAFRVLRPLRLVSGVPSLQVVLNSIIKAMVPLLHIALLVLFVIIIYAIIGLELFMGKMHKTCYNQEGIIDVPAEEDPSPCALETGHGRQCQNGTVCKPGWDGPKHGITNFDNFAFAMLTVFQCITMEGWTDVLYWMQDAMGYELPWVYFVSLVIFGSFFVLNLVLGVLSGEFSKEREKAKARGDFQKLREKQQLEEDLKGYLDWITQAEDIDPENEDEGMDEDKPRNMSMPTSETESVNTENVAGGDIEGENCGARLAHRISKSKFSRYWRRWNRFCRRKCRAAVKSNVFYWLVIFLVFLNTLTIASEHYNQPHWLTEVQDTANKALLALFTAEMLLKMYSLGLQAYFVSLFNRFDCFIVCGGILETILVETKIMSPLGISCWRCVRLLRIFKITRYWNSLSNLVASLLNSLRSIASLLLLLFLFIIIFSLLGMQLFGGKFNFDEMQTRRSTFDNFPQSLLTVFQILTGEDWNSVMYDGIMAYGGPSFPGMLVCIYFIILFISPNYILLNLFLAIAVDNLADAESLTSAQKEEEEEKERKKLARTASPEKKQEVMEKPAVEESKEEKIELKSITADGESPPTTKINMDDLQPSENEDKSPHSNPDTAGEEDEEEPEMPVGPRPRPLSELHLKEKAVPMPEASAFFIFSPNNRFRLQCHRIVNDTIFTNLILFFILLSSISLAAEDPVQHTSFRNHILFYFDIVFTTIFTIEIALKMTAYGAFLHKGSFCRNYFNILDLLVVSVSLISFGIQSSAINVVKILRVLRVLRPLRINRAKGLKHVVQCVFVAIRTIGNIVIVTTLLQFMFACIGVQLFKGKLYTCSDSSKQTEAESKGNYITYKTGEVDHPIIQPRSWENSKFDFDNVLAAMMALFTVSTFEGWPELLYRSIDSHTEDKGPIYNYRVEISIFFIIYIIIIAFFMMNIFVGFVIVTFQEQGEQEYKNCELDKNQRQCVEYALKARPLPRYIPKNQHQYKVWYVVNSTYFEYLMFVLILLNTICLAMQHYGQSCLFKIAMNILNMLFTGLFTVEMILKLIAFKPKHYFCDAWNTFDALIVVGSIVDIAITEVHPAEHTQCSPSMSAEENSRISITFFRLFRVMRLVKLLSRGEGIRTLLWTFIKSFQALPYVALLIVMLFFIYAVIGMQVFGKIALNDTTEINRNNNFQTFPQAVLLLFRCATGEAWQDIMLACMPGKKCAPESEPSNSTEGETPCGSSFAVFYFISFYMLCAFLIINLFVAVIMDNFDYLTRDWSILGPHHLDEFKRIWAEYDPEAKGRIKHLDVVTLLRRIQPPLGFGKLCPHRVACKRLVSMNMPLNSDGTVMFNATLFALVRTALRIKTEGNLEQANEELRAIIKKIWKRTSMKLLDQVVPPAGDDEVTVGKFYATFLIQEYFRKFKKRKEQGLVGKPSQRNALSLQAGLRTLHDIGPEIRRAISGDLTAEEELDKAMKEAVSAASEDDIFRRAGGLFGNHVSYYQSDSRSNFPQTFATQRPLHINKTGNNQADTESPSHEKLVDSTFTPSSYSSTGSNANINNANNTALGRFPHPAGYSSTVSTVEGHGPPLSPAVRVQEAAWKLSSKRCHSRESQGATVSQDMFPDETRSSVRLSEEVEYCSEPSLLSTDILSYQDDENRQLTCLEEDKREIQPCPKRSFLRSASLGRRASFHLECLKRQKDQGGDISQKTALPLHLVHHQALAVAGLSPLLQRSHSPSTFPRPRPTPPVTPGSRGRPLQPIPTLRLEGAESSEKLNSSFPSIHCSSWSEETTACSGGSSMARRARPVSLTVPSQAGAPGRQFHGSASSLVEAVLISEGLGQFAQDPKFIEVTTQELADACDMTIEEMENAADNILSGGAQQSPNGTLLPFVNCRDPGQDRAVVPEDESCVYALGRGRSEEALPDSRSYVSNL
T6 sequence (P34972 whole entry): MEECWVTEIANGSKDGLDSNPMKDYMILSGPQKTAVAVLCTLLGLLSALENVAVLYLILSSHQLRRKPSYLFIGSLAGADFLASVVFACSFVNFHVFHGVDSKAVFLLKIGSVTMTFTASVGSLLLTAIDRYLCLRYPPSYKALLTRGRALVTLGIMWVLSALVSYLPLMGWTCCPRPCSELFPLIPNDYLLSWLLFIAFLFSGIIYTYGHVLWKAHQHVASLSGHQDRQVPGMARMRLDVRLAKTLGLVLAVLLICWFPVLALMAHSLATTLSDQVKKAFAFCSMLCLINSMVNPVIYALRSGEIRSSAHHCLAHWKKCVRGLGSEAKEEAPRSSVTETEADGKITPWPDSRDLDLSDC
Chain of Adenosine Transporter (Q99808 whole entry): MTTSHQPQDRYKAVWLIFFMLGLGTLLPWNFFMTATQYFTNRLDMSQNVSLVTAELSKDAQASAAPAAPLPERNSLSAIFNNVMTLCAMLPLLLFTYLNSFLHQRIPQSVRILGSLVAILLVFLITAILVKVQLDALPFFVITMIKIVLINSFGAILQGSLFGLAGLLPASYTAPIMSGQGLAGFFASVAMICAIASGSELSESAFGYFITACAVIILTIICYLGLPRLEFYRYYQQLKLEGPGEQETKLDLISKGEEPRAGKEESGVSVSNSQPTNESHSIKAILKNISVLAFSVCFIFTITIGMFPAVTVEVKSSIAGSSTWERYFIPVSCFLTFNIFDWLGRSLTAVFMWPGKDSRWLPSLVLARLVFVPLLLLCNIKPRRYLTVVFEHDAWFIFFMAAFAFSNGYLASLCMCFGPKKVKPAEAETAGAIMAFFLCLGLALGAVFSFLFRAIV
T7 sequence (P21918 whole entry): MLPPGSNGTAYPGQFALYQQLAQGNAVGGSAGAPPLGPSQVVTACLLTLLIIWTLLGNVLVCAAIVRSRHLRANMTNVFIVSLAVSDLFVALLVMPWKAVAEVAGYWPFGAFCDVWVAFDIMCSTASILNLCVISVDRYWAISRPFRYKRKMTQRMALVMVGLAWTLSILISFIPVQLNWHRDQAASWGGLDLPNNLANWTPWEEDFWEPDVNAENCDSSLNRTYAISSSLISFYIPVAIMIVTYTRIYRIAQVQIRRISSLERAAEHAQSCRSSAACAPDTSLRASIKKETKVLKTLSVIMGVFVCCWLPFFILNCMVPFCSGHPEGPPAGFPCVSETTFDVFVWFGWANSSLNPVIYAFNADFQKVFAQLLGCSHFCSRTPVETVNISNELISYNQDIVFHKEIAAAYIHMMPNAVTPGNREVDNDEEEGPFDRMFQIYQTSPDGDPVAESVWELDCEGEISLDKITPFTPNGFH
T3 sequence (P29274 whole entry): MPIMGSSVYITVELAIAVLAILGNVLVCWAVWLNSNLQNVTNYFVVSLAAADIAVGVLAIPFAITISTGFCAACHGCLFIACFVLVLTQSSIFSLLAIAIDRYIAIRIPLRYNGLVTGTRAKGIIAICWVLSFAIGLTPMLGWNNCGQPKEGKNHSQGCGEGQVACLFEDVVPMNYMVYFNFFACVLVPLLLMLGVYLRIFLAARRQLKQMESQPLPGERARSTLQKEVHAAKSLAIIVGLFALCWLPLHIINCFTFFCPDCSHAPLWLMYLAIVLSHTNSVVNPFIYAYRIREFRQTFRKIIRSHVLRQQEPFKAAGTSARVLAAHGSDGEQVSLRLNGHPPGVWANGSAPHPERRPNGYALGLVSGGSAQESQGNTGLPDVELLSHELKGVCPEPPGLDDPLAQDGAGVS
Chain of Norepinephrine Transporter (Q9WTR4 1-597): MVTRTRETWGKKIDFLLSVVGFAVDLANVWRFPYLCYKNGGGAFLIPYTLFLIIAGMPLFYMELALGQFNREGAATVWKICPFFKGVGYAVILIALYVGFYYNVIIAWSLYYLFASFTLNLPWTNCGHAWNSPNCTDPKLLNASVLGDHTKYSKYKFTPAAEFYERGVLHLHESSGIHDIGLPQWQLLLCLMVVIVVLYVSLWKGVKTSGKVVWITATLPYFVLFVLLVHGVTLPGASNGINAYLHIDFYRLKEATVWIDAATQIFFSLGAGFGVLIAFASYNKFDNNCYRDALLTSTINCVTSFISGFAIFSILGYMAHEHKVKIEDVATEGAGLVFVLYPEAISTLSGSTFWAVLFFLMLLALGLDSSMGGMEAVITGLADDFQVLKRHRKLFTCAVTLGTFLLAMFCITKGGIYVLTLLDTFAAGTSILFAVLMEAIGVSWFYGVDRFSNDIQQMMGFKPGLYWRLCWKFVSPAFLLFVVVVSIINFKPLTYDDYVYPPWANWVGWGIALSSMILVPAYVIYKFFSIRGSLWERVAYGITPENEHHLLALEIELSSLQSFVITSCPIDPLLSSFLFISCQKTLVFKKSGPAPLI
T2 sequence (O70528 whole entry): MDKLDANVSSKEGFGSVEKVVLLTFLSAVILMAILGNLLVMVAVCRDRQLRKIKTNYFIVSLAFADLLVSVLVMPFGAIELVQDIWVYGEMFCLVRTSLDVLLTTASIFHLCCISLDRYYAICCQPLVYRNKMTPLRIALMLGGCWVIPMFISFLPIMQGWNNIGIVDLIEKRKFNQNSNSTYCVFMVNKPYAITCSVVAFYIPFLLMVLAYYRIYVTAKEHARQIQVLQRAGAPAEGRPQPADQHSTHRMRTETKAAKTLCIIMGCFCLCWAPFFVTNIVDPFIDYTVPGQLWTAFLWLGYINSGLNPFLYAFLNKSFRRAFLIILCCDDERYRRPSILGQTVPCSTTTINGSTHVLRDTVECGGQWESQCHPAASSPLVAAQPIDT
Chain of Benzodiazepine, peripheral (P30536 whole entry): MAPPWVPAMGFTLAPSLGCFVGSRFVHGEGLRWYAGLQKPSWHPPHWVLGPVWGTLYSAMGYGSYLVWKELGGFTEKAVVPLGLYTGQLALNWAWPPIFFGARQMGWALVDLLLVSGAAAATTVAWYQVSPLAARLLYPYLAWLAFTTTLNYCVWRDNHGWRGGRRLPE

## COC(=O)[C@H]1[C@@H](OC(=O)c2ccccc2)C[C@@H]2CC[C@H]1N2C [cocaine]
Acetylcholinesterase
  Pass 1 (10^−5 M) % Inhibition: 8.18%
Glutamate Transport
  Pass 1 (10^−5 M) % Inhibition: 24.20%
Estrogen
  Pass 1 (10^−5 M) % Inhibition: 12.80%
[1]
  Pass 1 (10^−5 M) % Inhibition: 30.71%
[2]
  inhibition at 10 µM: 24.4%
Imidazoline, I2, central
  Pass 1 (10^−5 M) % Inhibition: 37.90%
Sodium, Site 1
  Pass 1 (10^−5 M) % Inhibition: 2.74%
Galanin
  Pass 1 (10^−5 M) % Inhibition: −14.73%
[3]
  Pass 1 (10^−5 M) % Inhibition: 12.28%
[4]; high dosages
  effects of high dosages: euphoria, involuntary motor activity, stereotypic behavior, paranoia, and irritability and increased risk of violence
[4]
  effect on heart rate and blood pressure: dosage dependent increase in heart rate and blood pressure
Serotonin, 5HT4
  inhibition at 10 µM: 22.1%
Serotonin, 5HT2A
  inhibition at 10 µM: 23.4%
[5]
  inhibition at 10 µM: 60%
Adenosine, A2A
  inhibition at 10 µM: 25.9%
[6]
  Pass 1 (10^−5 M) % Inhibition: 5.36%
Histamine, H2
  inhibition at 10 µM: 28.8%
[7]
  inhibition at 10 µM: 0.51%
Glutamate, AMPA Site
  Pass 1 (10^−5 M) % Inhibition: −9.30%
Adrenergic, Beta 1
  inhibition at 10 µM: 11.7%
[8]
  Pass 1 (10^−5 M) % Inhibition: 11.36%
Neurokinin, NK1
  Pass 1 (10^−5 M) % Inhibition: −1.72%
Cannabinoid, CB2
  inhibition at 10 µM: 0.78%
Dopamine, D5
  inhibition at 10 µM: 2.44%
Neurokinin, NK3 (NKB)
  Pass 1 (10^−5 M) % Inhibition: −15.24%
Adrenergic, Alpha 2C
  inhibition at 10 µM: -5.94%
[9]
  Pass 1 (10^−5 M) % Inhibition: −1.39%
Adenosine, A1
  Pass 1 (10^−5 M) % Inhibition: 2.29%
Serotonin, 5HT1B
  inhibition at 10 µM: 3.31%
[10]
  Pass 1 (10^−5 M) % Inhibition: −14.06%
Muscarinic, M5
  inhibition at 10 µM: 6.01%
[11]
  Pass 1 (10^−5 M) % Inhibition: 11.15%
[12]
  inhibition at 10 µM: 10.2%
Melatonin
  Pass 1 (10^−5 M) % Inhibition: 16.13%
Serotonin, 5HT1A
  Pass 1 (10^−5 M) % Inhibition: 0.52%
Adrenergic, Alpha 1A
  Pass 1 (10^−5 M) % Inhibition: −1.18%
Adenosine Transporter
  inhibition at 10 µM: 16.5%
[13]
  Pass 1 (10^−5 M) % Inhibition: 38.66%
Serotonin, 5HT6
  inhibition at 10 µM: 1.13%
GABA Transaminase
  Pass 1 (10^−5 M) % Inhibition: 25.43%
Muscarinic, M4
  inhibition at 10 µM: 0.42%
Sodium, Site 2
  Pass 1 (10^−5 M) % Inhibition: 36.80%
Adenosine, A2
  Pass 1 (10^−5 M) % Inhibition: 26.30%
Calcium Channel, Type N
  Pass 1 (10^−5 M) % Inhibition: 11.51%
Muscarinic, M1
  inhibition at 10 µM: 23.3%
